Marks after values point to notes of the source that are not given here. Values belong to the compound of their own block, whether it stands above or below them.
What was measured:
[1] = Intracellular metabolism in human hepatocytes; assay type: in vitro ADME
Method: Hepatocytes. […] Cryopreserved male mouse (CD1), and fresh male Beagle dog and male cynomolgus monkey hepatocytes were obtained from BioreclamationIVT (Baltimore, MD) and were similarly plated with Matrigel in 6- or 24-well plates and maintained overnight in InVitroGRO™HI medium with Torpedo™ antibiotic (BioreclamationIVT). The protocol described above for measuring AT-511 and its metabolites in Huh-7 cells was repeated with the five different hepatocytes. Untreated cells were collected at 24 h, and the protein content of the cell lysates were determined using a bicinchoninic acid protein assay kit to assess the number of cells in each incubation. Separately, plated human hepatocytes were incubated for 6 h with 100 μM AT-511, followed by washout periods of 0, 2, 6, 18 and 30 h.
S3 Protocol. LC-MS/MS analysis of AT-511 and metabolites in cultured cells. The supernatant extracts of each hepatocyte and Huh-7 cell incubation were separately analyzed by four different LC-MS/MS methods for quantitation of phosphoramidates, nucleosides, monophosphates, and triphosphates (methods 1, 2, 3 and 4, respectively), using synthetic reference standards of actually and potentially present compounds and using structurally related analogs as internal standards. Briefly, a Luna PFP (2), 5 µm, 100 x 4.6 mm column and an AB Sciex API-6500 mass spectrometer (ESI positive ion, MRM mode) were used for methods 1-3 and an XBridge Oligonucleotide, BEH C18, 2.5 µm, 50 x 2.1 mm column and a Thermo QE Plus mass spectrometer (electrospray, negative ion mode) were used for method 4. For methods 1 and 2, mobile phases A (10 mM ammonium acetate in water) and B (acetonitrile:methanol, 1:1, v/v) were used to elute samples (5 µL) at 1 mL/min with 15% B for 1.5 min followed by a linear gradient to 75% B over 1 min (method 1) or with 54% B for 1.3 min followed by a linear gradient to 90% B over 1.2 min. Method 3 was the same except mobile phase A was 0.3% acetic acid in water, […] and samples were eluted with 3% B for 3 min followed by a linear gradient to 55% B over 1.2 min. For method 4, mobile phase A (3 mM ammonium formate with 10 mM dimethylhexylamine (DMHA) in water) and mobile phase B (3 mM ammonium formate with 10 mM DMHA in acetonitrile:water, 1:1, v/v) were used to elute samples at 0.4 mL/min with 0% B for 1.5 min followed by a linear gradient to 100% B over 2 min and ending with an isocratic elution for 0.5 min at 100% B.

[2] = Monkey PK study, liver and heart tissue levels; assay type: in vivo, cynomolgus monkey; settings: for Liver/Heart Ratio / Mean Concentration at 4 hr Postdose, Liver / Mean Concentration at 4 hr Postdose, Heart: monkey; for Liver/Heart Ratio: 4 h; for Mean Concentration at 4 hr Postdose, Heart: footnoted values extrapolated below LLOQ
From the text: (§1) Monkey PK study. Male non-naïve cynomolgus monkeys were obtained from Hainan Jingang Laboratory Animal Co., Ltd. (Hainan, China), group housed during the 5-day acclimation period or individually housed during the study in stainless steel mesh cages, provided ad libitum access to RO water, fed twice daily (~120 g Certified Monkey Diet daily; Beijing Vital Keao Feed Co., Ltd., Beijing, China) and given daily treats of fresh fruit. Additional environmental enrichment included classical music and cartoons. Three groups of 5 monkeys each were administered 30, 100 or 300 mg/kg AT-527 as a powder filled in empty porcine hard gelatin capsules (size 0). The monkeys were fasted overnight prior to dosing and fed 4 h after dosing. Three dosages were selected to provide assessments of dose proportionality, the top two representing potential doses for a repeated oral dose toxicity study in monkeys, and the lowest predicted to be more therapeutically relevant. A pill gun was used to place the capsule beyond the root of the animals’ tongues and their mouths were held loosely closed for approximately 30 sec to allow them to move the jaw and swallow the capsule. Immediately following capsule administration, 20 mL of water was given by mouth and then the mouth was opened to ensure the capsule was swallowed. Blood samples (~0.6 mL) were collected up to 72 h from three animals per dose group, and up to 4 h from the remaining two animals in each group, at the same time points described for rats. […] Blood samples were collected with a syringe from a peripheral blood vessel from restrained, non-sedated animals, immediately transferred to pre-chilled tubes containing ~1 mg K2EDTA•2H20 and 20 μL of 5 mM dichlorvos solution, mixed and placed on ice until plasma was prepared by centrifugation as described for rats. Immediately after centrifugation, plasma samples were extracted with 4 volumes ISS2, and the supernatants were clarified by centrifugation (12,000 rpm, 10 min, 4°C) and stored at ≤ -60°C until analyzed by LC-MS/MS as described below. After the 4-hr blood collection, two monkeys per dose group were anesthetized with intravenous injection of pentobarbital sodium (60 mg/kg) and then euthanized as described for rats. […] All analytes were quantitated by LC-MS/MS as described below.
For the analysis of AT-9010 in rat tissue homogenate supernatant, aliquots were diluted 1:2 with water and injected onto an Agilent Zorbax Extend C18 5 μm, 2.1 × 50 mm column and a Sciex API 4000 mass spectrometer (ESI positive ion, MRM mode). Mobile phases A (0.001% ammonia and 0.18 mM DBAA in water (1:1, v/v) and B (10 mM dimethylhexylamine (DMHA) and 3 mM AA in 50% ACN in water) were used to elute samples (60 μL) at 0.7 mL/min with 2% B for 0.8 min followed by a linear gradient to 30% B over 0.4 min, isocratic elution at 30% B for 0.4 min, a linear gradient to 95% B over 0.4 min, and ending with 95% B for 0.4 min. The analysis of AT-9010 in monkey tissue homogenate supernatant was the same except the sample injection volume was 20 μL. Attempts to measure tissue levels of other potentially formed TPs, including 2,6-diaminopurine-2’-F-2’-C-methylribosyl-5’-triphosphate and 2-amino-6-methylaminopurine-2’-F-2’-C-methylribosyl-5’-triphosphate (M2-TP), also used this method.
For the analysis of M2 and M3 in monkey tissue homogenate supernatant, aliquots were diluted 1:3 with water and injected onto an Acuity HSS T3 1.8 μm, 2.1 × 50 mm column and a Sciex API 6500 mass spectrometer (ESI positive ion, MRM mode). Mobile phases A (0.3% FA and 10 mM AA in water and B (0.3% FA and 10 mM AA in 95% ACN in water) were used to elute samples (1 μL) at 0.6 mL/min with 0% B for 0.4 min followed by linear gradients to 30% B over 0.5 min and to 95% B over 0.2 min, ending with isocratic elution at 95% B for 0.4 min.

[3] = Monkey PK study, plasma; assay type: in vivo, cynomolgus monkey; settings: for plasma concentration: male cynomolgus monkeys; for AUC(0-t) / Cmax / MRT last / Tmax: male, cynomolgus, cynomolgus monkey, in vivo, po;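 as to plasma concentration: concentrations in nmol/mL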
From the text: as §1
LC-MS/MS analysis of rat and monkey plasma and tissue homogenate supernatants. For the analysis of AT-511 in rat plasma, aliquots were extracted with 10 volumes ISS2. The supernatants were clarified by centrifugation (4000 rpm for 10 min at 4°C) and 3 μL samples were injected onto an Acuity BEH C18 1.7 μm, 2.1 × 50 mm column and a Sciex API 4000 mass spectrometer (ESI positive ion, MRM mode). Mobile phases A (0.025% formic acid (FA) and 1 mM ammonium acetate (AA) in 5% ACN in water) and B (0.025% FA and 1 mM AA in 95% ACN in water) were used to elute samples (3 μL) at 0.6 mL/min with 10% B for 0.3 min followed by linear gradients to 60% B over 0.6 min and to 90% B over 0.2 min, and ending with 90% B for 0.4 min.
PK data analysis. […] The linear/log trapezoidal rule was applied in obtaining the PK parameters.

[4] = Rat pharmacokinetic study, plasma; assay type: in vivo, Sprague-Dawley rat; settings: for plasma concentration, individual rats: AT-527 500 mg/kg oral, male 1-3, female 7-9, BQL: <0.0017 AT-511, <0.0022 M1, <0.0032 AT-273, M4
[5] = both sexes, Sprague-Dawley, rat, in vivo, po, 500 mg/kg

intracellular detection [1]: not detected
concentration in liver and heart tissue ([2]; cynomolgus monkey, in vivo): < 110 pmol/g
Compound: CNc1nc(N)nc2c1ncn2[C@@H]1O[C@H](COP(=O)(O)OP(=O)(O)OP(=O)(O)O)[C@@H](O)[C@@]1(C)F [5’-TP of M2, 2-amino-6-methylaminopurine-2’-F-2’-C-methylribosyl-5’-triphosphate]

Compound: CNc1nc(N)nc2c1ncn2[C@@H]1O[C@H](CO[P@@](=O)(N[C@@H](C)C(=O)OC(C)C)Oc2ccccc2)[C@@H](O)[C@@]1(C)F [AT-527]
unusual or adverse clinical signs ([3]; monkeys, single oral 30, 100 or 300 mg/kg): no such signs noted
unusual or adverse clinical signs ([4]; rats, single oral 500 mg/kg): no such signs noted

Compound: CNc1nc(N)nc2c1ncn2[C@@H]1O[C@H](CO[P@](=O)(O)N[C@@H](C)C(=O)O)[C@@H](O)[C@@]1(C)F [M1]
plasma concentration ([3]; single oral AT-527 30 mg/kg, 0.500 h, monkey 1): BQL
plasma concentration ([3]; single oral AT-527 30 mg/kg, 48.0 h, monkey 1): BQL
plasma concentration ([3]; single oral AT-527 30 mg/kg, 48.0 h, monkey 2): BQL
plasma concentration ([3]; single oral AT-527 30 mg/kg, 72.0 h, monkey 1): BQL
plasma concentration ([3]; single oral AT-527 30 mg/kg, 72.0 h, monkey 2): BQL
plasma concentration ([3]; single oral AT-527 30 mg/kg, 72.0 h, monkey 3): BQL
plasma concentration ([3]; single oral AT-527 100 mg/kg, 48.0 h, monkey 1): BQL
plasma concentration ([3]; single oral AT-527 100 mg/kg, 48.0 h, monkey 2): BQL
plasma concentration ([3]; single oral AT-527 100 mg/kg, 72.0 h, monkey 1): BQL
plasma concentration ([3]; single oral AT-527 100 mg/kg, 72.0 h, monkey 2): BQL
plasma concentration ([3]; single oral AT-527 100 mg/kg, 72.0 h, monkey 3): BQL
plasma concentration ([3]; single oral AT-527 300 mg/kg, 0.500 h, monkey 1): BQL
plasma concentration ([3]; single oral AT-527 300 mg/kg, 48.0 h, monkey 2): BQL
plasma concentration ([3]; single oral AT-527 300 mg/kg, 48.0 h, monkey 3): BQL
plasma concentration ([3]; single oral AT-527 300 mg/kg, 72.0 h, monkey 1): BQL
plasma concentration ([3]; single oral AT-527 300 mg/kg, 72.0 h, monkey 2): BQL
plasma concentration ([3]; single oral AT-527 300 mg/kg, 72.0 h, monkey 3): BQL
AUC(0-t) ([3]; 30 mg/kg): 5.44 ± 2.76 µM·h
Cmax ([3]; 30 mg/kg): 0.94 ± 0.61 µM
MRT last ([3]; 30 mg/kg): 7.06 ± 1.07 h
Tmax ([3]; 30 mg/kg): 4.67 ± 2.31 h
AUC(0-t) ([3]; 100 mg/kg): 25.5 ± 10.1 µM·h
Cmax ([3]; 100 mg/kg): 4.24 ± 2.84 µM
MRT last ([3]; 100 mg/kg): 7.22 ± 0.48 h
AUC(0-t) ([3]; 300 mg/kg): 35.6 ± 26.4 µM·h
Cmax ([3]; 300 mg/kg): 4.44 ± 4.74 µM
MRT last ([3]; 300 mg/kg): 11.4 ± 3.6 h
Tmax ([3]; 300 mg/kg): 4.67 ± 1.16 h
Liver/Heart Ratio ([2]; AT-527 30 mg/kg oral): 3.7
Liver/Heart Ratio ([2]; AT-527 100 mg/kg oral): 3.6
Liver/Heart Ratio ([2]; AT-527 300 mg/kg oral): 5.6
plasma concentration, individual rats ([4]; 48.0 h): BQL
plasma concentration, individual rats ([4]; 72.0 h): BQL
AUC(0-t) [4, 5]: 77.9 ± 20.3 µM·h
Cmax [4, 5]: 40.8 ± 9.7 µM
MRT last [4, 5]: 2.54 ± 0.41 h
Tmax [4, 5]: 0.58 ± 0.14 h

Compound: CNc1nc(N)nc2c1ncn2[C@@H]1O[C@H](COP(=O)(O)O)[C@@H](O)[C@@]1(C)F [M2]
Mean Concentration at 4 hr Postdose, Liver ([2]; AT-527 30 mg/kg oral): 103 pmol/g
Liver/Heart Ratio ([2]; AT-527 30 mg/kg oral): 19^a
Mean Concentration at 4 hr Postdose, Heart ([2]; AT-527 30 mg/kg oral): 5.4^a pmol/g
Mean Concentration at 4 hr Postdose, Liver ([2]; AT-527 100 mg/kg oral): 479 pmol/g
Liver/Heart Ratio ([2]; AT-527 100 mg/kg oral): 48^a
Mean Concentration at 4 hr Postdose, Heart ([2]; AT-527 100 mg/kg oral): 9.9^a pmol/g
Mean Concentration at 4 hr Postdose, Liver ([2]; AT-527 300 mg/kg oral): 87.9 pmol/g
Liver/Heart Ratio ([2]; AT-527 300 mg/kg oral): 13^a
Mean Concentration at 4 hr Postdose, Heart ([2]; AT-527 300 mg/kg oral): 6.6^a pmol/g

Compound: C[C@@]1(F)[C@H](O)[C@@H](COP(=O)(O)O)O[C@H]1n1cnc2c(=O)[nH]c(N)nc21 [M3]
Mean Concentration at 4 hr Postdose, Liver ([2]; AT-527 30 mg/kg oral): 78.8 pmol/g
Liver/Heart Ratio ([2]; AT-527 30 mg/kg oral): 11^a
Mean Concentration at 4 hr Postdose, Heart ([2]; AT-527 30 mg/kg oral): 7.5^a pmol/g
Mean Concentration at 4 hr Postdose, Liver ([2]; AT-527 100 mg/kg oral): 203 pmol/g
Liver/Heart Ratio ([2]; AT-527 100 mg/kg oral): 26^a
Mean Concentration at 4 hr Postdose, Heart ([2]; AT-527 100 mg/kg oral): 7.9^a pmol/g
Mean Concentration at 4 hr Postdose, Liver ([2]; AT-527 300 mg/kg oral): 1180 pmol/g
Liver/Heart Ratio ([2]; AT-527 300 mg/kg oral): 72
Mean Concentration at 4 hr Postdose, Heart ([2]; AT-527 300 mg/kg oral): 16.5 pmol/g

From publication PMC6949113, “Preclinical evaluation of AT-527, a novel guanosine nucleotide prodrug with potent, pan-genotypic activity against hepatitis C virus” (PLoS ONE, 2020)
